Assay [1] relates to CS from Streptococcus pneumoniae (SpCS). Set-up: method as in PMID 12565943. To be noted: SpCS ref 12; cited from earlier work.
Another assay concerns the target CS from N. crassa. The settings on record: CS from N. crassa ref 30; cited from earlier work.
Assay [2] concerns the target T1, PbCS (Paracoccidioides brasiliensis, UniProt C1GBW5). Set-up: method as in PMID 30348661.
Assay [3] addresses T1, PbCS. Also on record: method as in PMID 30348661. To be noted: PbCS ref 13, cited from earlier work.
In assay [4] the target is T2, chorismate synthase (CS) (Capnoides sempervirens, UniProt P27793).
T2 construct: made in house; host or cells: E. coli
T2 sequence (P27793 58-447): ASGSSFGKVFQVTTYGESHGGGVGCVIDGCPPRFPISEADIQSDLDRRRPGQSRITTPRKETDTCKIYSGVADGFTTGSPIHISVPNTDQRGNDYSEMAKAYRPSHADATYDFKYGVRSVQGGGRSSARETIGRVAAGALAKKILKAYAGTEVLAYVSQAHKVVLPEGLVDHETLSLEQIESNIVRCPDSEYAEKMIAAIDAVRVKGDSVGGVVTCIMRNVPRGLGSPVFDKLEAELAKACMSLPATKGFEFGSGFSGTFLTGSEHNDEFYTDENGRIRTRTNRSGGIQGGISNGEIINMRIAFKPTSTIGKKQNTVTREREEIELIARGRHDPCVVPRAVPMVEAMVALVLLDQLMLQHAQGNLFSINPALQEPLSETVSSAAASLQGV
Put plainly: Spectrophotometric titration, CS from Corydalis sempervirens. The format is binding. To be noted: CS from Corydalis sempervirens (plant).

In assay [5] the target is chorismate synthase (CS). Put plainly: Spectrophotometric titration, CS from Solanum lycopersicum. The format is binding. The settings on record: CS from Solanum lycopersicum (plant).
For assay [6], the target named is chorismate synthase (CS) (Toxoplasma gondii, UniProt O02607). The assay can be described thus: Spectrophotometric titration, CS from Toxoplasmodium gondii. The assay is classed as binding. The settings on record: CS from Toxoplasmodium gondii (protozoon).
Assay [7] addresses chorismate synthase (CS) (Methanothermobacter thermautotrophicus, UniProt O26843). The assay can be described thus: Spectrophotometric titration, CS from Methanobacterium thermoautotrophicum. The assay is classed as binding.
For assay [8], the target named is T3, chorismate synthase (CS) (Trichormus variabilis, UniProt Q3MFM3).
T3 construct: made in house; host or cells: E. coli
T3 sequence (Q3MFM3 whole entry): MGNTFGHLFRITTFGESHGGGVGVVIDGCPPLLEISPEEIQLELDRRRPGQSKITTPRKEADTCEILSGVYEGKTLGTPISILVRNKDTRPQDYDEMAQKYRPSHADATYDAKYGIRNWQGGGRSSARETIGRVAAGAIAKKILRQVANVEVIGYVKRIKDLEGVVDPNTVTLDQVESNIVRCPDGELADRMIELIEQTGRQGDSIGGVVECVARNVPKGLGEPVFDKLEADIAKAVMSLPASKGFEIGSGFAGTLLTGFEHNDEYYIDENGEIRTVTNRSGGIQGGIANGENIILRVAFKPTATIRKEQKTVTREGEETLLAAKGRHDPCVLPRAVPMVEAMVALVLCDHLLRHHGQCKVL
Put plainly: Spectrophotometric titration, CS from Anabaena variabilis. The format is binding. To be noted: CS from Anabaena variabilis (cyanobacterium).

Assay [9] has as its target T4, chorismate synthase (CS) (Saccharomyces cerevisiae, UniProt P28777).
T4 construct: made in house; host or cells: E. coli
Put plainly: Spectrophotometric titration, CS from Saccharomyces cerevisiae. The settings on record: CS from Saccharomyces cerevisiae (yeast). The assay is classed as binding.

Assay [10] has as its target T5, chorismate synthase (CS) (Neurospora crassa, UniProt Q12640).
T5 construct: made in house; host or cells: E. coli
The assay can be described thus: Spectrophotometric titration, CS from Neurospora crassa. The assay is classed as binding. To be noted: CS from Neurospora crassa (fungus). The procedure: (§1) For the binding studies, PH011669 was dissolved in 50 mM NaH2PO4 and 150 mM NaCl at pH 8, diluted to a final concentration of approximately 10 µM (A580nm ∼0.25; 800 µL), and transferred to a quartz cuvette (with 800 µL of buffer in the reference cuvette). After recording an initial UV-visible absorption spectrum between 300 and 800 nm, 10 µL aliquots of PbCS (∼55 µM) were added, and spectral changes were monitored after each addition. To quantify the binding affinity of PH011669 to PbCS, we plotted the relative absorption changes at 510 nm as a function of the protein concentration in the cuvette[17].

Assay [11] deals with chorismate synthase (CS) (Tetrahymena thermophila, UniProt Q23FV7). The assay can be described thus: Spectrophotometric titration, CS from Tetrahymena thermophila. The assay is classed as binding.
Chain of chorismate synthase (CS) (Tetrahymena thermophila, UniProt Q23FV7) (Q23FV7 entry or part of it): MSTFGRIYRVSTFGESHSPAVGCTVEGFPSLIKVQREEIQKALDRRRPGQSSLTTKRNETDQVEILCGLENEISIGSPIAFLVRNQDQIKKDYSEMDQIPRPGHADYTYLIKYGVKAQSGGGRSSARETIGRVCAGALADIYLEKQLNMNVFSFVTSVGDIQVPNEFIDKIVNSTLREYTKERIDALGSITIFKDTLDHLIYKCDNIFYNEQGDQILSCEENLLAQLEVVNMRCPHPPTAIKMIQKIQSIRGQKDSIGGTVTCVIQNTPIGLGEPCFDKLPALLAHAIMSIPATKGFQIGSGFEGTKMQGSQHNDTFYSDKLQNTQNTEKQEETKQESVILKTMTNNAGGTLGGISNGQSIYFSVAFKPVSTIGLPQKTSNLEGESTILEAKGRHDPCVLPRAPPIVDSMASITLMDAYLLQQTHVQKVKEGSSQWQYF
In assay [12] the target is T6, chorismate synthase (CS) (Aquifex aeolicus, UniProt O66493).
T6 construct: made in house; host or cells: E. coli
T6 sequence (O66493 whole entry): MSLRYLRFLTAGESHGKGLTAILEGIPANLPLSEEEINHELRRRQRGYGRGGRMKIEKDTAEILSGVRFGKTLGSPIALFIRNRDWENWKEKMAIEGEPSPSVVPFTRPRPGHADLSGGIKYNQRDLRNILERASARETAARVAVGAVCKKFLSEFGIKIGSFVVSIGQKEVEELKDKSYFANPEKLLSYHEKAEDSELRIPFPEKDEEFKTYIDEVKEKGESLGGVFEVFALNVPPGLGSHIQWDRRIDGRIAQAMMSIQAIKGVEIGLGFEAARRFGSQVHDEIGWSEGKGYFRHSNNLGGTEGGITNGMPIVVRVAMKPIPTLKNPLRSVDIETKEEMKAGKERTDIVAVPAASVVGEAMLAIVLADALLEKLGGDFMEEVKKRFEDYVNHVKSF
Put plainly: Spectrophotometric titration, CS from Aquifex aeolicus. The format is binding.

Assay [13] has as its target T1, PbCS. The assay can be described thus: Inhibition assay, CS reaction coupled with anthranilate synthase reaction. The assay is classed as biochemical. To be noted: 80 μM EPSP, 4 μM PbCS, 37 °C, Hill fit. The procedure:
The influence of PH011669 on the activity of PbCS was tested by forward coupling the CS reaction with the anthranilate synthase reaction. The final reaction solution contained 80 μM EPSP, 4 μM PbCS, 7 µM YcnD, 20 μM anthranilate synthase, 4 mM MgSO4, 10 mM L-glutamine (L-Gln), 30 mM (NH4)2SO4, 1 mM dithiothreitol (DTT) and different concentrations of the inhibitor (0.1–250 µM). The assay was prepared in 10 mM potassium phosphate at pH 7.6 and pipetted into a 96-well plate. The reaction was started by the addition of 500 µM NADPH. PbCS activity could be studied spectrofluorometrically at 37 °C by following the increase in the fluorescence intensity at 390 nm (λex = 340 nm) for 5 min, which correlates with the amount of anthranilate formed in the course of the reaction. The slopes of the initial velocities were determined and plotted as a function of the log of the corresponding PH011669 concentration (triplicates were determined).
To test the inhibitory effect of PH011669 on the activity of CS, we used a coupled assay involving EPSP, CS, YcnD and anthranilate synthase. Our inhibition assay has been used to determine the ability of a drug to reduce the activity of the enzyme. The resulting IC50 value gives the concentration of a drug required for 50% inhibition of the enzymatic activity. […]

Assay [14] has as its target T7, chorismate synthase (CS) (Thermotoga maritima, UniProt Q9WYI2).
T7 construct: made in house; host or cells: E. coli
The assay can be described thus: Spectrophotometric titration, CS from Thermotoga marítima. The format is binding.

In assay [15] the target is T1, PbCS. Put plainly: Isothermal titration calorimetry (ITC). To be noted: single site binding model, 25 °C, pH 8, triplicates, read-out: dissociation constant by ITC. The procedure: Isothermal titration calorimetry (ITC) was performed on a MicroCal PEAQ-ITC. All ITC experiments were conducted in storage buffer (50 mM NaH2PO4, 150 mM NaCl, pH 8) at 25 °C and a stirring rate of 750 rpm. Titration experiments consisted of 13 injections (first injection: 0.4 µL; duration time: 0.8 s; spacing time: 300 s; 2nd–13th injection: 3 µL; duration time: 6 s; spacing time: 150 s) and were performed in triplicates. The azo-dye PH011669 (500 µM) was loaded into the injection syringe and titrated into the sample cell containing PbCS (25 µM); the reference cell was filled with degassed ddH2O. Dissociation constants were obtained with the MicroCal PEAQ-ITC Analysis Software (Malvern) using the “one set of sites fitting” model.

Assay [16] concerns the target T8, chorismate synthase (CS) (Escherichia coli, UniProt P12008).
T8 construct: made in house; host or cells: E. coli
Put plainly: Spectrophotometric titration, CS from Escherichia coli. The format is binding.

Assay [17] deals with chorismate synthase (CS) (Candida albicans, UniProt A0A1D8PTK1). Put plainly: Spectrophotometric titration, CS from Candida albicans. The format is binding. To be noted: CS from Candida albicans (fungus).
Chain of chorismate synthase (CS) (Candida albicans, UniProt A0A1D8PTK1) (A0A1D8PTK1 entry or part of it): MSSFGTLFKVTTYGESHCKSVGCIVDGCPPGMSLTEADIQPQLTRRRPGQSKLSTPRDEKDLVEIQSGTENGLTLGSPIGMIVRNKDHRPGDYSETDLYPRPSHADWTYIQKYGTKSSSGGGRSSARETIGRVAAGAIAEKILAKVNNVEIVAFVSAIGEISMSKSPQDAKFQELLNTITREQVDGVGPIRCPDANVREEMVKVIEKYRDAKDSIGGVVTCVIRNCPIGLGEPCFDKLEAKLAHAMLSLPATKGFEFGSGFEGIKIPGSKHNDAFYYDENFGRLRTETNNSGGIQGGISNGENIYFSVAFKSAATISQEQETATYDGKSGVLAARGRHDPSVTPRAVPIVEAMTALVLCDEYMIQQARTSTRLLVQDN
Assay [18] deals with chorismate synthase (CS) (Botrytis cinerea, UniProt A0A384JF70). The assay can be described thus: Spectrophotometric titration, CS from Botrytis fuckeliana. The format is binding. The settings on record: CS from Botrytis fuckeliana (fungus).
Chain of chorismate synthase (CS) (Botrytis cinerea, UniProt A0A384JF70) (A0A384JF70 entry or part of it): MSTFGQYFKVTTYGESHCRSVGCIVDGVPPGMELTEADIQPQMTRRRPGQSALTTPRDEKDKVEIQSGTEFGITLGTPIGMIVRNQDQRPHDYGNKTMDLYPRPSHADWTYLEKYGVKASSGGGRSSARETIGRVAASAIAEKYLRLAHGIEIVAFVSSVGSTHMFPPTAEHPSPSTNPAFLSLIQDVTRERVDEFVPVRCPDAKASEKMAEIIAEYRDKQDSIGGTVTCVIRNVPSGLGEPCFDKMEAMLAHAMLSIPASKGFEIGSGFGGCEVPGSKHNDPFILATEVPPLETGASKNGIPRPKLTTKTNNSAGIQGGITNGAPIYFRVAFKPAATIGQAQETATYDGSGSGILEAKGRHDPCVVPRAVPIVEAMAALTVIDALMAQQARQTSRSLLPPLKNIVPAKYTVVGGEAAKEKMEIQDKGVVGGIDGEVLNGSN
In assay [19] the target is chorismate synthase (CS) (Staphylococcus aureus, UniProt Q2FYG9). The assay can be described thus: Spectrophotometric titration, CS from Staphylococcus aureus. The format is binding.
Chain of chorismate synthase (CS) (Staphylococcus aureus, UniProt Q2FYG9) (Q2FYG9 whole entry): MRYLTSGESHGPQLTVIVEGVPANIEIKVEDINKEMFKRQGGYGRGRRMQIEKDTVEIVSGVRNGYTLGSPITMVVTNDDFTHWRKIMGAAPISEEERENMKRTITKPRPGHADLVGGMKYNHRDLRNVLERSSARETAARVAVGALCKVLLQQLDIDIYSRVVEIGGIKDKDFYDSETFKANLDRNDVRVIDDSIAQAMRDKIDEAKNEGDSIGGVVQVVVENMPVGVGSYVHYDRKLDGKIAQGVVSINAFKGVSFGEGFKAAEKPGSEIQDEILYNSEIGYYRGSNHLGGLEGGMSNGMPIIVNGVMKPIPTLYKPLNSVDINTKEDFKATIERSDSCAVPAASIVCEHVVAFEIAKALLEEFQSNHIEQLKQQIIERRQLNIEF
Assay [20] has as its target chorismate synthase from Paracoccidioides brasiliensis (PbCS) (Paracoccidioides brasiliensis, UniProt C1GBW5). Put plainly: Spectrophotometric titration / binding assay, PbCS. The method, then: as §1
Assay [21] has as its target CS from Neurospora crassa. Set-up: method as in earlier work. The settings on record: competitive inhibitor of CS from Neurospora crassa ref 9; cited from earlier work.
For the next assay, the system named is CS. Also on record: method as in PMID 7559411. The settings on record: very slow substrate of CS ref 10; cited from earlier work.

Like-named read-outs stand apart in the source and are kept apart here.

T1 sequence (C1GBW5 entry or part of it): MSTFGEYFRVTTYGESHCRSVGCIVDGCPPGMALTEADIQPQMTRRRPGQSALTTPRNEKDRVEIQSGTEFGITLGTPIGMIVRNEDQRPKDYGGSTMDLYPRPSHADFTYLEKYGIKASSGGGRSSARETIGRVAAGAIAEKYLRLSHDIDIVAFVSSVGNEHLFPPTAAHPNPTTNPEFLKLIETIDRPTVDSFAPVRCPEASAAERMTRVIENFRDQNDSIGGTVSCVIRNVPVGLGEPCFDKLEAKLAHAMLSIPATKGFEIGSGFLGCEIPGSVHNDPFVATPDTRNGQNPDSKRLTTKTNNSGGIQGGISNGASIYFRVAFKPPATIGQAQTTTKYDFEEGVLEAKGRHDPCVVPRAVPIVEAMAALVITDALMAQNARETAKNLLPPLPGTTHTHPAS
Chain of chorismate synthase from Paracoccidioides brasiliensis (PbCS) (C1GBW5 entry or part of it): as above
Chain of chorismate synthase (CS) (Methanothermobacter thermautotrophicus, UniProt O26843) (O26843 whole entry): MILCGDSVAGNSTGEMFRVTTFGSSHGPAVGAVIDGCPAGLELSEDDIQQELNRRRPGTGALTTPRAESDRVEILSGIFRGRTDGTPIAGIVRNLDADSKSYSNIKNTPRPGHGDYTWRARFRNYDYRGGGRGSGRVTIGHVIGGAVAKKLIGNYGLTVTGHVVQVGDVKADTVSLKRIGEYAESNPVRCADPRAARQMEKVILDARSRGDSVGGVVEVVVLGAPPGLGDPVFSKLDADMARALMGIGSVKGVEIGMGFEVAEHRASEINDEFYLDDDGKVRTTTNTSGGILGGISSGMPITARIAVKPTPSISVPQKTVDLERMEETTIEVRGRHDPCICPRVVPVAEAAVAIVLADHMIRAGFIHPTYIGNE
T4 sequence (P28777 whole entry): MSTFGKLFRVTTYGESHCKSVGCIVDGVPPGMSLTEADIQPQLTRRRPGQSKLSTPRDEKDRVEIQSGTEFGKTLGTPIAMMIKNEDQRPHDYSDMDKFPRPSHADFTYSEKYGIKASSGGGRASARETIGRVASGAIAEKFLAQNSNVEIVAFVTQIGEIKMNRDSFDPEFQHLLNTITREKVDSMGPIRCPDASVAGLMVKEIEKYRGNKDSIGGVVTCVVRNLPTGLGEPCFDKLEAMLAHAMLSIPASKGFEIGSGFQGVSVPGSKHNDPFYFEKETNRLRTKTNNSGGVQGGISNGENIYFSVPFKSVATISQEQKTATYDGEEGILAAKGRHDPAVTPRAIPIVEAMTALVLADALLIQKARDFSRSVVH
T7 sequence (Q9WYI2 whole entry): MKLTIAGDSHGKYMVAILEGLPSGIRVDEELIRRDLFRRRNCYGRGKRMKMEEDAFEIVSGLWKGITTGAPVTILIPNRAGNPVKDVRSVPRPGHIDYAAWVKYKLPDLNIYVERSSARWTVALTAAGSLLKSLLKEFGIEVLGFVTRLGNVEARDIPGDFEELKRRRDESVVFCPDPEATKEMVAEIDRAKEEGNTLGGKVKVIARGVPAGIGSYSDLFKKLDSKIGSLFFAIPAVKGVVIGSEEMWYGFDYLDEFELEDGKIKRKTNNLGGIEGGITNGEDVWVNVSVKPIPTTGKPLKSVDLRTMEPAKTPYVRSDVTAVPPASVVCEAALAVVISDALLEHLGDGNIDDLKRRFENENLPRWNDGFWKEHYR

What is called IC50 is the midpoint of a concentration-inhibition curve. In the case of `CCN(CC)c1ccc(/C=C2\Oc3c(ccc(O)c3O)C2=O)cc1` [BF1], the IC50 in [1] was 8 µM.

Consider `C=C(OC1CC(C(=O)O)=CC(OP(=O)(O)O)C1O)C(=O)O` (stereo not drawn) [EPSP, 5-enolpyruvylshikimate-3-phosphate], for which the Kd on CS from N. crassa was 17 µM.

`CCCCCOc1ccc(/C=C2\Oc3c(ccc(O)c3O)C2=O)c(O)c1` [BF2]: the IC50 in assay [1] is 0.22 µM.

As to `O=C(O)[C@H]1Nc2c(cccc2[N+](=O)[O-])[C@@H]2[C@H](Cl)[C@@H](Sc3ccccc3[N+](=O)[O-])C[C@@H]21` [CP1, (1S,2S,3aS,4S,9bR)-1-chloro-6-nitro-2-(2-nitrophenyl)sulfanyl-2,3,3a,4,5,9b-hexahydro-1H-cyclopenta[c]quinoline-4-carboxylic acid], the Kd on PbCS [2] (read-out: dissociation constant; PbCS ref 13; cited from earlier work) was 64 ± 1 µM. The IC50 at PbCS [3] was 47 µM.

As for `Nc1cc(S(=O)(=O)O)cc2cc(S(=O)(=O)O)c(/N=N/c3cc([N+](=O)[O-])cc(Cl)c3O)c(O)c12` [PH011669, 5-amino-3-[(E)-(3-chloro-2-hydroxy-5-nitrophenyl)diazenyl]-4-hydroxy-2,7-naphthalenedisulfonic acid], the Kd at chorismate synthase (CS) [4] came out at 1 ± 0.1 µM; on chorismate synthase (CS) [5], 1.8 ± 0.1 µM; on chorismate synthase (CS) [6], 1.7 µM; at chorismate synthase (CS) [7] it was 2.7 µM; at chorismate synthase (CS) [8], 1.8 ± 0.1 µM; on chorismate synthase (CS) [9], 2.4 ± 0.1 µM. Further, the Kd was 3.5 ± 0.1 µM at chorismate synthase (CS) [10]; 4.4 ± 0.1 µM on chorismate synthase (CS) [11]; 3.2 ± 0.1 µM at chorismate synthase (CS) [12]; 1.5 µM on chorismate synthase (CS) [14]; 3.8 ± 1.8 µM at PbCS [15]; 3.7 ± 1 µM on chorismate synthase (CS) [16]. Also, the Kd amounted to 4.6 ± 0.7 µM on chorismate synthase (CS) [17]; 4 ± 0.6 µM on chorismate synthase (CS) [18]; 3.7 ± 0.1 µM on chorismate synthase (CS) [19]; 1.1 µM in assay [20] (read-out: Kd (dissociation constant), spectrophotometric titration, PbCS). At PbCS [13], this molecule registered an IC50 of 10 ± 1 µM. In addition, the “higher affinity than the initial hit” value in assay [20] (affinity to PbCS relative to initial hit (CaCS02)) is recorded as “ca. 20 fold”.

Regarding `O=[N+]([O-])c1ccc(/N=N/c2c(S(=O)(=O)O)cc3cc(S(=O)(=O)O)ccc3c2O)c([N+](=O)[O-])c1` [CaCS02, 2-(2,4-dinitrophenylazo)-1-hydroxynaphthalene-3,6-disulfonic acid (nitrazine yellow)], the Kd at PbCS [2] (PbCS ref 13; read-out: dissociation constant; cited from earlier work) was 20 µM. Also, at PbCS [3] (read-out: IC50), the IC50 was 29 µM.

What is called Ki is the dissociation constant of the complex between target and ligand, obtained from inhibition or displacement. For `C=C(OC1C(O)C(OP(=O)(O)O)C=C(C(=O)O)[C@H]1F)C(=O)O` (stereo partly drawn) [6(R)-6-fluoro-EPSP, (6R)-6-fluoro-5-enolpyruvylshikimate 3-phosphate], the Ki in assay [21] is 3 ± 0.3 µM.

`C=C(OC1C(O)C(OP(=O)(O)O)C=C(C(=O)O)[C@@H]1F)C(=O)O` (stereo partly drawn) [6(S)-6-fluoro-EPSP, (6S)-6-fluoro-5-enolpyruvylshikimate-3-phosphate]: the “slower turnover than EPSP” value in the assay with CS is recorded as 200 fold.

Values taken from paper PMC11633415, “Investigation of the inhibitory properties of azo-dyes on chorismate synthase from Paracoccidioides brasiliensis” (Journal of Enzyme Inhibition and Medicinal Chemistry, 2024).
